Here are results for 24 molecules from patent publication US8940742B2, “Heterocyclic compounds and uses thereof” (Infinity Pharmaceuticals, Inc., priority 2012, dated 2015).

Test [1] addresses T1, Raw264.7 p110 γ (Mus musculus, UniProt Q9JHG7).
T1 construct: reduction of phospho-AKT in stimulated RAW 264.7 cells; endogenous in cells; host or cells: RAW264.7 macrophages
Description: Raw264.7 p110 γ cellular assay (phospho-AKT). The test is classed as cell-based. To be noted: serum-starved RAW264.7 cells stimulated with C5a. An excerpt: (b) PI3K-γ Selective Assay
Briefly, serum-starved PAW264.7 cells are stimulated with a known GPCR agonist C5a. […] Cells can be treated with test compounds prior to, simultaneously with, or subsequent to the stimulation by C5a. RAW 264.7 cells respond to the complement component fragment C5a through activation of the C5a receptor, and the C5a receptor activates macrophages and induces cell migration.

The target in test [2] is T2, PI3K β (Homo sapiens, UniProt P42338).
T2 construct: purchased Millipore
Description: PI3-Kinase Promega ADP-Glo Max assay. To be noted: 40 nM kinase, 3 mM ATP, 500 uM diC8-PtdInsP. The test is classed as biochemical. The gist of the method:
(§1)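 Human class I PI3K (20 nM α or δ, 40 nM β) pre-incubated 15 min with compound in HEPES pH 7.4 buffer with MgCl2, then reacted 2 h at room temperature with 3 mM ATP and 500 uM diC8-PtdInsP. ADP measured by ADP-Glo Max luminescence; % inhibition fitted to 4-parameter logistic for IC50.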

For test [3], the target named is T3, PI3K δ (Homo sapiens, UniProt O00329).
T3 construct: purchased Millipore
Nature of the test: PI3-Kinase Promega ADP-Glo Max assay. The test is classed as biochemical. As to conditions: 20 nM kinase, 3 mM ATP, 500 uM diC8-PtdInsP. In outline: as §1

Test [4] addresses T4, PI3K α (Homo sapiens, UniProt P42336).
T4 construct: purchased Millipore
Nature of the test: PI3-Kinase Promega ADP-Glo Max assay. The test is classed as biochemical. As to conditions: 20 nM kinase, 3 mM ATP, 500 uM diC8-PtdInsP. In outline: as §1

Test [5] has as its target RAJI p110 δ (Homo sapiens, UniProt O00329). Nature of the test: RAJI p110 δ cellular assay (phospho-AKT).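 Also: potency based on lowered phosphorylated AKT in RAJI cells, as a readout of PI3K-δ dependent B-cell receptor signaling.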
Description: (a) PI3K-δ Selective Assay
Reduction of phospho-AKT is indicative of compounds that may inhibit B-cell proliferation and function in certain diseases.
Test [6] addresses T5, PI3K γ (Homo sapiens, UniProt P48736).
T5 construct: purchased Millipore
Nature of the test: PI3-Kinase Promega ADP-Glo Max assay. The test is classed as biochemical. To be noted: 40 nM kinase, 3 mM ATP, 500 uM diC8-PtdInsP. The gist of the method: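 Human class I PI3K reactions ran 2 hours at room temperature, followed by stop solution (40 min) and detection mix (1 hour) before luminescence reading.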

T2 sequence (P42338 whole entry): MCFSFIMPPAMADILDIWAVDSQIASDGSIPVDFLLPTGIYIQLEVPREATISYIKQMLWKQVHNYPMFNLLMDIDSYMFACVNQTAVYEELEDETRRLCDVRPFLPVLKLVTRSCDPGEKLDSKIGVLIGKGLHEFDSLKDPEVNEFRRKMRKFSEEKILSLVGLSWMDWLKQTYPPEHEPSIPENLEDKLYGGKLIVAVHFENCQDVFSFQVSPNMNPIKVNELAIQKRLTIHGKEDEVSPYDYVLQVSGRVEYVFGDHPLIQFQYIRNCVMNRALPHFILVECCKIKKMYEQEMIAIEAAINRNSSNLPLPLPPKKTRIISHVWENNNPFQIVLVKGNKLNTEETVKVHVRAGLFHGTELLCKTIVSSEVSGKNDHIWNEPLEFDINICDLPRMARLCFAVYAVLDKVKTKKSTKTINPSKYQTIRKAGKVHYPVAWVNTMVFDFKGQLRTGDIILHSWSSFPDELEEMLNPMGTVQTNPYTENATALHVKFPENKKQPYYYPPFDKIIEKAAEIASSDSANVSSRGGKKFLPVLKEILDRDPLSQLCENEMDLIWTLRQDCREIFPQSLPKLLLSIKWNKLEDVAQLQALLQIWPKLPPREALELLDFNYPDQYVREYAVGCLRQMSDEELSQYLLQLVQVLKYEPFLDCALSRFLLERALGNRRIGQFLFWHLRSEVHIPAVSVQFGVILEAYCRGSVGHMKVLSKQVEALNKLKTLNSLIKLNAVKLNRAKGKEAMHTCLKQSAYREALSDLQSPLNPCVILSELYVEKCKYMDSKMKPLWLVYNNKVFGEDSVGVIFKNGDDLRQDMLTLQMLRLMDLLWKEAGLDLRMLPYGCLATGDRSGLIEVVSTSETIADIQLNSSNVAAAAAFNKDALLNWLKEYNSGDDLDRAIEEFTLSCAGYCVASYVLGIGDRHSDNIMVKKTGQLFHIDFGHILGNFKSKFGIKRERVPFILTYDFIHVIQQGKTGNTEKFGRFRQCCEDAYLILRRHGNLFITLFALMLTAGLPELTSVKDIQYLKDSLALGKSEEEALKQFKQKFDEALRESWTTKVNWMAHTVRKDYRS
T2 sequence (P27986 whole entry partner): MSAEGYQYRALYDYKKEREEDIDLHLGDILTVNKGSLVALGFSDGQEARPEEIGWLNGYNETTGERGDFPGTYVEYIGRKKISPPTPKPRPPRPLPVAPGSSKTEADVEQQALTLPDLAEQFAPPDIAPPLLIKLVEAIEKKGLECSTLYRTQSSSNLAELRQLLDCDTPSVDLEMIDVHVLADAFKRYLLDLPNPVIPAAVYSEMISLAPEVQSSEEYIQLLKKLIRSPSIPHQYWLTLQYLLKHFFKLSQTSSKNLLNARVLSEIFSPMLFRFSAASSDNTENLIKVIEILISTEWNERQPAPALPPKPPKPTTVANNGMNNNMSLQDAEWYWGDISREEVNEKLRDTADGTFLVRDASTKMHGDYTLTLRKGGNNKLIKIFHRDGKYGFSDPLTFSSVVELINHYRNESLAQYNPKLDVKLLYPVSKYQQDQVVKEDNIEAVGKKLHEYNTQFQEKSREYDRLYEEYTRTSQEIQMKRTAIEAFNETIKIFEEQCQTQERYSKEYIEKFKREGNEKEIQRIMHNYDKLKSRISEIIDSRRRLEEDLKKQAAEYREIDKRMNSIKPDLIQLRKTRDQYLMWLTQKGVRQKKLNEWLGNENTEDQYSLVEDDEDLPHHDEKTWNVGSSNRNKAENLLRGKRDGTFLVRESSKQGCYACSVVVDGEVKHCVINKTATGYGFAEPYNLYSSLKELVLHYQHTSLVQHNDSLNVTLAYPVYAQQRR
T5 sequence (P48736 whole entry): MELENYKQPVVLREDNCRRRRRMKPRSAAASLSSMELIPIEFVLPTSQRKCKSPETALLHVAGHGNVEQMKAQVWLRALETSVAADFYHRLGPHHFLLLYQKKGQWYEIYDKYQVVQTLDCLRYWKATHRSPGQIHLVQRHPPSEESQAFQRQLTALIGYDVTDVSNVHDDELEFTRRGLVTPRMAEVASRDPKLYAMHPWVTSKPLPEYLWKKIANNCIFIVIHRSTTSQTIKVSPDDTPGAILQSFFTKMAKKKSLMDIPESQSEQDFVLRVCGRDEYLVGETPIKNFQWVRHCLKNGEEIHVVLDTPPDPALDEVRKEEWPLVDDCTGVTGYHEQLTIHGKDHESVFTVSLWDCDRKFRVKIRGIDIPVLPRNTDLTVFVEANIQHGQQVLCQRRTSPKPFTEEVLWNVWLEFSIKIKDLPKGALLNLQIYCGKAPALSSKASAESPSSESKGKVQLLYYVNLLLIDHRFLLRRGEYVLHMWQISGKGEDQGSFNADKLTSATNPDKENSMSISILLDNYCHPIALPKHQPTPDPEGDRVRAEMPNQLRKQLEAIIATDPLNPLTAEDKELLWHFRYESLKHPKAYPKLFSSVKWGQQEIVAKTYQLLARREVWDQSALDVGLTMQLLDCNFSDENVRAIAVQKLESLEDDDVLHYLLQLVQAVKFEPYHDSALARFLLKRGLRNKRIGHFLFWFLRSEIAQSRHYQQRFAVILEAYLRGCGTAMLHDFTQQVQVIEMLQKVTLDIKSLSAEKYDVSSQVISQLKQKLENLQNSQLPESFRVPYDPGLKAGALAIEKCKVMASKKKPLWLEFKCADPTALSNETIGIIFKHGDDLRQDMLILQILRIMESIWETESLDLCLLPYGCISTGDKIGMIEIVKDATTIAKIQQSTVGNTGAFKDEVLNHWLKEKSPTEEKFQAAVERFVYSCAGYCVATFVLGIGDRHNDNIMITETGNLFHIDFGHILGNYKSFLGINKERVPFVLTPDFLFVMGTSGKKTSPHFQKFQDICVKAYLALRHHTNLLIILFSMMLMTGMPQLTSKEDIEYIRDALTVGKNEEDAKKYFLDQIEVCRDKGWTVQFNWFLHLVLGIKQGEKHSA
T4 sequence (P42336 whole entry): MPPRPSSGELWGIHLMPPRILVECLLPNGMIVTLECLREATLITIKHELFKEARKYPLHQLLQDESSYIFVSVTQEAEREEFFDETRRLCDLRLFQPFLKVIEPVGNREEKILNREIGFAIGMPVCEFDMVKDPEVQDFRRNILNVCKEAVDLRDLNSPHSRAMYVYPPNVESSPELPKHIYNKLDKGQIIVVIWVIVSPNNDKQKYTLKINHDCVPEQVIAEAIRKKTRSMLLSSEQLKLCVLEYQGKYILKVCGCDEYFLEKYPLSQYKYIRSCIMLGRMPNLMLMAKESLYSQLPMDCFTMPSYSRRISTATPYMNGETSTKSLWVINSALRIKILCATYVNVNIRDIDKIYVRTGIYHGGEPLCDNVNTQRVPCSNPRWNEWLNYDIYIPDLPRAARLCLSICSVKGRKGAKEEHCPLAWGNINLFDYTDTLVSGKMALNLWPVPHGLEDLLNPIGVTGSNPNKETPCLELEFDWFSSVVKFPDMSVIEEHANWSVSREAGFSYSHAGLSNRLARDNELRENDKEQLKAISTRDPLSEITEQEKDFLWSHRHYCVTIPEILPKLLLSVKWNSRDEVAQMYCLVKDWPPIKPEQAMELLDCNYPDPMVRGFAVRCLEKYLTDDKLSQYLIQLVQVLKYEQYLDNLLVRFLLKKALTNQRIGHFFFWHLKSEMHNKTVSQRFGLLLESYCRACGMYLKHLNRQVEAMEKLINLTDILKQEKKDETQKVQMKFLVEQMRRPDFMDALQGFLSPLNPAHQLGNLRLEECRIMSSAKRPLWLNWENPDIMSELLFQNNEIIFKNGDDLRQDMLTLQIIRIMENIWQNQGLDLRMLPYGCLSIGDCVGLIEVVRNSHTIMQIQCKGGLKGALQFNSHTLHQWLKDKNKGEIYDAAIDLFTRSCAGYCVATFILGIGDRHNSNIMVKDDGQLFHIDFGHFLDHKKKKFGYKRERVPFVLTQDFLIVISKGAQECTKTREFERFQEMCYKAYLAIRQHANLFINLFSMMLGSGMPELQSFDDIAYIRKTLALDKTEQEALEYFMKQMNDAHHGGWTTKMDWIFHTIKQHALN
T4 sequence (P27986 whole entry partner): as the sequence (P27986 whole entry partner) above
T1 sequence (Q9JHG7 whole entry): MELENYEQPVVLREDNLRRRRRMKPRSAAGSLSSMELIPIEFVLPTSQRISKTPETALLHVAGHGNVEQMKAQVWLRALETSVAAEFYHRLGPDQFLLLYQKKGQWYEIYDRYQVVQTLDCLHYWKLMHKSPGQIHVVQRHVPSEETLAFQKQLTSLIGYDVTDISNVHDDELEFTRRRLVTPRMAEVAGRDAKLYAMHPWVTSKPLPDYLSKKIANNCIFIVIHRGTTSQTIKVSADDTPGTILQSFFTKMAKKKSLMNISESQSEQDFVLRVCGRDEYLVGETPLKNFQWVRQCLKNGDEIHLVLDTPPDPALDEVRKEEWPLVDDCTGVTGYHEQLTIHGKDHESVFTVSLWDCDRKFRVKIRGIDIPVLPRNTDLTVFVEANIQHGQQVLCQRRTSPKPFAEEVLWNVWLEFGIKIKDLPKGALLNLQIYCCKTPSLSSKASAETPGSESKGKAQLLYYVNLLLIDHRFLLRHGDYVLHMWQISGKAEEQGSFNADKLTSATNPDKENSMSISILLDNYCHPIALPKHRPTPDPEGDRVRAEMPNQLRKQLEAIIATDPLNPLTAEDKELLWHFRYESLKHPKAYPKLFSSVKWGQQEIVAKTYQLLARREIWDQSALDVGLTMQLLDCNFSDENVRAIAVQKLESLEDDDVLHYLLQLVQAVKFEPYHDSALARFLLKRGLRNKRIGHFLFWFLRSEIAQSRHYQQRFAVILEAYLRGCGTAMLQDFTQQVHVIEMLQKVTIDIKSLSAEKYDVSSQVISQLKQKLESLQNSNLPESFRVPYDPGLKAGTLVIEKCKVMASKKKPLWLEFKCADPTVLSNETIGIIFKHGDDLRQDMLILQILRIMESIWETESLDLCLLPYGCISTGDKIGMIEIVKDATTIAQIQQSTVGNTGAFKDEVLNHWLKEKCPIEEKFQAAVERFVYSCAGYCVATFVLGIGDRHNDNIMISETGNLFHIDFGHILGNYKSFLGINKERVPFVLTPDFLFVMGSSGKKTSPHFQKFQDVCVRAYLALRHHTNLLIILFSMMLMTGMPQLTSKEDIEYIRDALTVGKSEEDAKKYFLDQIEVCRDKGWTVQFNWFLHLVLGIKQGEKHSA

With `C[C@H](NC(=O)c1c(N)nn2ccc(-c3cccc(S(C)(=O)=O)c3)nc12)c1cc2cccc(Cl)c2c(=O)n1-c1ccccc1` [Compound 127], the half-maximal inhibitory concentration (IC50) in test [1], in test [2], in test [3], in test [4], in test [5] and in test [6] was < 0.1 µM in each case.
Turning to `COc1ncc(-c2cccc3cc([C@H](C)NC(=O)c4c(N)nn5cccnc45)n(-c4ccccc4)c(=O)c23)cn1` [Compound 128], the IC50 in test [1] was < 0.1 µM; in test [2] it was 1 to 10 µM; in test [3] it was 1 to 10 µM; in test [4], 1 to 10 µM; in test [5] it was < 0.1 µM; in test [6] it was 0.1 to 1 µM.
Consider `C[C@H](NC(=O)c1c(N)nn2cccnc12)c1cc2cccc(O)c2c(=O)n1-c1ccccc1` [Compound 132], for which the IC50 in test [1] was < 0.1 µM; in test [2], 1 to 10 µM; in test [3], > 10 µM; in test [4] it was > 10 µM; in test [5], 0.1 to 1 µM; in test [6], 1 to 10 µM.
`C[C@H](NC(=O)c1c(N)nn2cccnc12)c1cc2ccccc2c(=O)n1-c1ccccc1` [Compound 133]: the IC50 in test [1] was < 0.1 µM; in test [2] it was 1 to 10 µM; in test [3] it was 1 to 10 µM; in test [4], > 10 µM; in test [5], 0.1 to 1 µM; in test [6], 0.1 to 1 µM.
Regarding `C[C@H](NC(=O)c1c(N)ncc2cccnc12)c1cc2cccc(Cl)c2c(=O)n1-c1ccccc1` [Compound 137], the IC50 in test [1] was < 0.1 µM; in test [2], 0.1 to 1 µM; in test [3], 0.1 to 1 µM; in test [4] it was 1 to 10 µM; in test [5], < 0.1 µM; in test [6] it was 0.1 to 1 µM.
Take `CC(C)Oc1cc(-c2cccc3cc([C@H](C)NC(=O)c4c(N)nn5cccnc45)n(-c4ccccc4)c(=O)c23)ccn1` [Compound 138]: the IC50 in test [1] was < 0.1 µM; in test [2] it was 1 to 10 µM; in test [3] it was 1 to 10 µM; in test [4], > 10 µM; in test [5], < 0.1 µM; in test [6], 0.1 to 1 µM.
As to `COc1cc(-c2cccc3cc([C@H](C)NC(=O)c4ncc(C)nc4N)n(-c4ccccc4)c(=O)c23)ccn1` [Compound 139], the half-maximal inhibitory concentration (IC50) is < 0.1 µM in test [1]; > 10 µM in test [2]; 1 to 10 µM in test [3]; > 10 µM in test [4]; 0.1 to 1 µM in test [5]; 1 to 10 µM in test [6].
For `COc1cc(-c2cccc3cc([C@H](C)NC(=O)c4c(N)ncc5cccnc45)n(-c4ccccc4)c(=O)c23)ccn1` [Compound 140], the IC50 in test [1] is < 0.1 µM; in test [2] it was > 10 µM; in test [3], 0.1 to 1 µM; in test [4], 1 to 10 µM; in test [5] it was < 0.1 µM; in test [6], < 0.1 µM.
Regarding `Cc1ccn2nc(N)c(C(=O)N[C@@H](C)c3cc4cccc(Cl)c4c(=O)n3-c3ccccc3)c2n1` [Compound 142], the IC50 is < 0.1 µM in test [1]; < 0.1 µM in test [2]; 0.1 to 1 µM in test [3]; 1 to 10 µM in test [4]; < 0.1 µM in test [5]; 0.1 to 1 µM in test [6].
With `COc1cc(-c2cccc3nc([C@H](C)NC(=O)c4c(N)nn5cccnc45)n(-c4ccccc4)c(=O)c23)ccn1` [Compound 144], the half-maximal inhibitory concentration (IC50) is < 0.1 µM in test [1]; 1 to 10 µM in test [2]; 0.1 to 1 µM in test [3]; 0.1 to 1 µM in test [4]; < 0.1 µM in test [5]; < 0.1 µM in test [6].
Turning to `CC(C)Oc1cc(-c2cccc3nc([C@H](C)NC(=O)c4c(N)nn5cccnc45)n(-c4ccccc4)c(=O)c23)ccn1` [Compound 145], the IC50 in test [1] is < 0.1 µM; in test [2], 1 to 10 µM; in test [3], 1 to 10 µM; in test [4] it was > 10 µM; in test [5] it was < 0.1 µM; in test [6] it was 1 to 10 µM.
Consider `COc1cc(-c2cccc3cc([C@H](C)NC(=O)c4c(N)nn5cccnc45)n(C4CC4)c(=O)c23)ccn1` [Compound 150], for which the IC50 in test [1] is < 0.1 µM; in test [2] it was 1 to 10 µM; in test [3], 1 to 10 µM; in test [4], 1 to 10 µM; in test [5], 0.1 to 1 µM; in test [6], 1 to 10 µM.
Take `Cc1cc(C)n2nc(N)c(C(=O)N[C@@H](C)c3cc4cccc(Cl)c4c(=O)n3-c3ccccc3)c2n1` [Compound 152]: the IC50 in test [1] is < 0.1 µM; in test [2], 0.1 to 1 µM; in test [3], 1 to 10 µM; in test [4], 1 to 10 µM; in test [5], < 0.1 µM; in test [6], 0.1 to 1 µM.
Take `C[C@H](NC(=O)c1c(N)nn2cccnc12)c1cc2cccc(C#CCN)c2c(=O)n1-c1ccccc1` [Compound 153]: the IC50 was 0.1 to 1 µM in test [1]; 1 to 10 µM in test [2]; 1 to 10 µM in test [3]; 1 to 10 µM in test [4]; 0.1 to 1 µM in test [5]; 0.1 to 1 µM in test [6].
`C[C@H](NC(=O)c1c(N)nn2cccnc12)c1cc2cccc(C#CCCN)c2c(=O)n1-c1ccccc1` [Compound 154]: the IC50 in test [1] was in the range of 0.1 to 1 µM; in test [2] it was 1 to 10 µM; in test [3] it was 1 to 10 µM; in test [4], 1 to 10 µM; in test [5], 0.1 to 1 µM; in test [6] it was 0.1 to 1 µM.
`C=CC(=O)NCC#Cc1cccc2cc([C@H](C)NC(=O)c3c(N)nn4cccnc34)n(-c3ccccc3)c(=O)c12` [Compound 155]: the IC50 in test [1] was < 0.1 µM; in test [2], 1 to 10 µM; in test [3], 0.1 to 1 µM; in test [4], 1 to 10 µM; in test [5], < 0.1 µM; in test [6], < 0.1 µM.
Regarding `C[C@H](NC(=O)c1c(N)nn2cccnc12)c1cc2cccc(C#CCNC(=O)C3CC(=O)CC(=O)C3)c2c(=O)n1-c1ccccc1` [Compound 156], the IC50 in test [1] is 0.1 to 1 µM; in test [2], 1 to 10 µM; in test [3] it was 0.1 to 1 µM; in test [4], 1 to 10 µM; in test [5] it was 1 to 10 µM; in test [6] it was < 0.1 µM.
Take `C[C@H](NC(=O)c1c(N)nn2cccnc12)c1cc2cccc(C#CCNC(=O)[C@@H]3CCC(=O)O3)c2c(=O)n1-c1ccccc1` [Compound 157]: the IC50 in test [1] is < 0.1 µM; in test [2], 0.1 to 1 µM; in test [3] it was 0.1 to 1 µM; in test [4], 0.1 to 1 µM; in test [5], < 0.1 µM; in test [6], < 0.1 µM.
On to `C[C@H](NC(=O)c1c(N)nn2cccnc12)c1cc2cccc(C#CCNC(=O)[C@H]3CCC(=O)O3)c2c(=O)n1-c1ccccc1` [Compound 158], for which the half-maximal inhibitory concentration (IC50) is < 0.1 µM in test [1]; 1 to 10 µM in test [2]; 1 to 10 µM in test [3]; 1 to 10 µM in test [4]; < 0.1 µM in test [5]; < 0.1 µM in test [6].
As for `C[C@H](NC(=O)c1c(N)nn2cccnc12)c1cc2cccc(C#CCNC(=O)C3CCCCC3)c2c(=O)n1-c1ccccc1` [Compound 159], the IC50 was < 0.1 µM in test [1]; 1 to 10 µM in test [2]; 1 to 10 µM in test [3]; 1 to 10 µM in test [4]; < 0.1 µM in test [5]; 0.1 to 1 µM in test [6].
Regarding `C=CC(=O)NCCC#Cc1cccc2cc([C@H](C)NC(=O)c3c(N)nn4cccnc34)n(-c3ccccc3)c(=O)c12` [Compound 160], the half-inhibitory concentration (IC50) in test [1] was < 0.1 µM; in test [2], 1 to 10 µM; in test [3], 1 to 10 µM; in test [4], 1 to 10 µM; in test [5] it was < 0.1 µM; in test [6] it was 0.1 to 1 µM.
On to `C[C@H](NC(=O)c1c(N)nn2cccnc12)c1cc2cccc(C#CCCNC(=O)[C@H]3CCC(=O)O3)c2c(=O)n1-c1ccccc1` [Compound 161], for which the IC50 in test [1] is < 0.1 µM; in test [2] it was > 10 µM; in test [3] it was 1 to 10 µM; in test [4] it was 1 to 10 µM; in test [5] it was < 0.1 µM; in test [6], 0.1 to 1 µM.
On to `C[C@H](NC(=O)c1c(N)nn2cccnc12)c1cc2cccc(C#CCNC(=O)C3CCC(=O)C3)c2c(=O)n1-c1ccccc1` (stereo partly drawn) [Compound 162], for which the IC50 is < 0.1 µM in test [1]; 1 to 10 µM in test [2]; 1 to 10 µM in test [3]; 0.1 to 1 µM in test [4]; < 0.1 µM in test [5]; < 0.1 µM in test [6].
In the case of `C[C@H](NC(=O)c1c(N)nn2cccnc12)c1cc2cccc(C#CCNC(=O)c3ccc(C#N)o3)c2c(=O)n1-c1ccccc1` [Compound 164], the IC50 in test [1] is < 0.1 µM; in test [2], 1 to 10 µM; in test [3], 1 to 10 µM; in test [4], 0.1 to 1 µM; in test [5], < 0.1 µM; in test [6], 0.1 to 1 µM.
